Experimental data from patent US9867811B2, “Method of treating atherosclerosis in high triglyceride subjects” (NOVARTIS AG, priority 2011, dated 2018).
Like-named read-outs stand apart in the source and are kept apart here.

Key:
[1] = HDL-C in cynomolgus monkeys on chow or high carbohydrate diet; type: in vivo; settings: Anacetrapib 10 mg/kg, mean ± SD; for HDL-C % Δ vs day 0, Day 7, Chow / HDL-C % Δ vs day 0, Day 14, Chow: chow diet; for HDL-C % Δ vs day 0, Day 7, Chow / HDL-C % Δ vs day 0, Day 7, High CHO: day 7, Example 8 3 mg/kg; for HDL-C % Δ vs day 0, Day 14, Chow / HDL-C % Δ vs day 0, Day 14, High CHO: day 14, Example 8 3 mg/kg; for HDL-C % Δ vs day 0, Day 7, High CHO / HDL-C % Δ vs day 0, Day 14, High CHO: high carbohydrate diet
Text: (§1) Normal male cynomolgus monkeys (n=17) weighing between 8-14 kg are placed on a high-carbohydrate, low-fat diet. The caloric composition of the diet is approximately 13.4% protein, 79.1% carbohydrate (sugar to starch ratio 50:50) and 7.5% fat. Calories are derived from standard monkey chow (LabDiet® 5047, PMI, Richmond, Ind. or LabDiet® 5000, Balanced Fiber diet, PMI, Richmond, Ind.) in quantities necessary to meet the protein and fat requirements, with the remaining calories provided by sugar-sweetened cereals, candies, and fruit (banana, orange, cantaloupe, honeydew, pineapple). The high-carbohydrate (CHO) diet will be fed for 18 days (4 days of pre-drug diet, 14 days of drug treatment), after which time they will return to their regular chow diets for a 14 day washout period followed by a second 14 day dosing phase of the study (normal diet).
(§2) Compound of Example 8 is dissolved at 30 mg/mL in 1M NaOH+ethanol:maisoel glyceride:propylene glycol:cremophor RH40 (10:36:9:45) and diluted 1:10 in ddH2O. […] The formulations are prepared each day (weekend doses are prepared on Friday) and stored stirring and protected from light at room temperature until dosing. Artificial flavor and color will be added to the dose when prepared.
(§3) The animals will ingest the compounds (1 mL/kg) voluntarily from a plastic syringe offered at their home cage at approximately 8 am daily. Animals will be fed 60 minutes after the dose is administered.
(§4) Blood collection will take place weekly during each dosing phase. Animals are fasted overnight (approximately 16 hours) prior to blood collection. Blood samples are collected from a saphenous vein via needle and syringe and put into 2 mL EDTA-coated tubes that are immediately placed on ice until centrifugation. Samples are centrifuged at 3,000 rpm for 20 minutes. The plasma is collected, divided into aliquots (listed below), and stored at −70° C. until analysis.

[2] = Plasma drug concentration in cynomolgus monkeys on chow or high carbohydrate diet; type: in vivo; settings: Example 8 3 mg/kg, Anacetrapib 10 mg/kg, mean ± SD; for Plasma [drug] ng/mL, Day 7, Chow / Plasma [drug] ng/mL, Day 14, Chow: chow diet; for Plasma [drug] ng/mL, Day 7, Chow / Plasma [drug] ng/mL, Day 7, High CHO: day 7, daily oral; for Plasma [drug] ng/mL, Day 14, Chow / Plasma [drug] ng/mL, Day 14, High CHO: day 14, daily oral; for Plasma [drug] ng/mL, Day 7, High CHO / Plasma [drug] ng/mL, Day 14, High CHO: high carbohydrate diet
Text: as §1, §2, §3, §4

[3] = molecular target: T1, CETP (Homo sapiens, UniProt P11597); assay: In vitro CETP activity assay in human plasma (serum pools of differing triglyceride level); type: biochemical; settings: for IC50: human serum pool
T1 construct: Human serum samples were obtained from the Novartis Institutes for BioMedical Research donor program; tissue Novartis donor program; Bioreclamation (Westbury, N.Y.); Uniglobe (Reseda, Calif.); host or cells: pooled human donor serum
T1 sequence (P11597 18-493): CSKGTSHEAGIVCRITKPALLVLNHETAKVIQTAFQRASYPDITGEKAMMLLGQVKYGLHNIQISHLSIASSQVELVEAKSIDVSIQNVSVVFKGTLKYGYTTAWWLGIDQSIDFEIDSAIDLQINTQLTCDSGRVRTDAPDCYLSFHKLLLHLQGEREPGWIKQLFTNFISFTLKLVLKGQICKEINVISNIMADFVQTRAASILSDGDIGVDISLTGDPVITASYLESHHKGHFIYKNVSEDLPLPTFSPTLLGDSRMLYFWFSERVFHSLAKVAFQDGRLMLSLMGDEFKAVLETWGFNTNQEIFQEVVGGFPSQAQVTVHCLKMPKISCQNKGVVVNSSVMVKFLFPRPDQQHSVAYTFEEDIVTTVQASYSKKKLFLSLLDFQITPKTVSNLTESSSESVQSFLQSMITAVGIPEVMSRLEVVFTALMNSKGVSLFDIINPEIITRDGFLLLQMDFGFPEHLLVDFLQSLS
Method: Pro-apoA-1 containing microemulsion as a donor particle was prepared following previous report (J. Biol. Chem., 280:14918-22). Glyceryl trioleate (500 ug, Sigma-Aldrich, Cat. No. T7140), 3-sn-phosphatidylcholine (4680 ug, Sigma, Cat. No. P2772), and cholesteryl BODIPY FL 012 (2 mg, Invitrogen, CA, Cat. No. C-3927MP) were dissolved in 1.5 mL of chloroform. The solution was evaporated, and residual solvent was removed under vacuum for more than 1 hr at room temperature. The dried lipid mixture was dissolved in 7 ml of the assay buffer (50 mM Tris-HCl (pH 7.4) containing 150 mM NaCl and 2 mM EDTA) and sonicated in water bath for 1 hr. The solution was split into two tubes of 3.5 ml each. Each tube was sonicated at 50° C. with a microtip (MICROSON™ ULTRASONIC CELL DISRUPTOR, Misonix, Farmingdale, N.Y.) at output power 006 for 10 min (every other 25 seconds). The solution was cooled to 40° C. and 400 ug of pro-apoA-1 was added to each tube (total volume of 4 mL). Then, the solution was sonicated at output power 004 for 20 min (every other 30 seconds). Final Concentration: Glyceryl Tiroleate: 62.5 ug/ml, PC: 585 ug/ml, Bodipy CE: 250 ug/ml, Pro-apoA-1: 100 ug/ml. Centrifuge solution at 5200×g for 5 minutes and store the supernatant at 4′C.
Human serum samples were obtained from the Novartis Institutes for BioMedical Research donor program (normal triglyceride samples) or purchased from Bioreclamation (Westbury, N.Y.) or Uniglobe (Reseda, Calif.). General requirements for human serum donors included: male gender, 20-55 years of age, not currently on a lipid altering medication, non-fasting at time of blood collection, and a total cholesterol level between 200-300 mg/dL. Donor samples were selected primarily on the basis of serum triglyceride level, using the following classifications: normal triglycerides (<150 mg/dL); high triglycerides (300-500 mg/dL); and very high triglycerides (750-1200 mg/dL). A total of 4 individual serum samples from each classification were used in these experiments. For each of the 3 triglyceride classifications, two serum sample pools were prepared. The mean plasma triglyceride concentrations (mg/dL) for the pools were: Normal: 101.35; High: 347.5; Very high 1, 868.45; Very high 2, 1269.35.
Donor solution is prepared by a dilution of donor microemulsion with assay buffer (1.7 ul donor+8.3 ul Buffer). Human serum (25 μL), assay buffer (14 μL) and 50× test compound dissolved in 100% dimethylsulfoxide (1 μL) are added to each well of 384 well black, clear-bottom plate (NUNC. Thermo Fisher #242764). The reaction is started by the addition of donor solution (10 μL) into each well. Fluorescence intensities are measured every 10 min at 37° C. with excitation wave length of 485 nm and emission wavelength of 515 nm over an 80 minute period, using a SpectraMax M5 from Molecular Devices (Sunnyvale, Calif.). The CETP activity (RFU/min) is defined as the change of fluorescence intensity from 40 to 70 min. Percent CETP inhibition is calculated as follows: ((100% Act−Wellcmpnd)/100% Act))*100. IC50 values were calculated with GraphPad Prism 5 software.

| Plasma [drug] ng/mL, Day 7, Chow [2] | Plasma [drug] ng/mL, Day 14, Chow [2] | Plasma [drug] ng/mL, Day 7, High CHO [2] | Plasma [drug] ng/mL, Day 14, High CHO [2] | Retention of CETP inhibitory activity in plasma from hypertriglyceridemic human subjects ([3]; in vitro, plasma from subjects with elevated triglycerides) | IC50 ([3]; TG = 101.35 mg/dL (normal), read-out: CETP IC50 (nM) TG = 101.35 mg/dL) | IC50 ([3]; TG = 374.5 mg/dL (high), read-out: CETP IC50 (nM) TG = 374.5 mg/dL) | IC50 ([3]; TG = 1269.35 mg/dL (very high 2), read-out: CETP IC50 (nM) TG = 1269.35 mg/dL) | Compound | HDL-C % Δ vs day 0, Day 7, Chow [1] | HDL-C % Δ vs day 0, Day 14, Chow [1] | HDL-C % Δ vs day 0, Day 7, High CHO [1] | HDL-C % Δ vs day 0, Day 14, High CHO [1] |
| --- | --- | --- | --- | --- | --- | --- | --- | --- | --- | --- | --- | --- |
| 272 ± 74 ng/mL | 320 ± 93 ng/mL | 1836 ± 3694 ng/mL | 1437 ± 2935 ng/mL | does not retain its potency |  |  |  | COc1cc(F)c(C(C)C)cc1-c1ccc(C(F)(F)F)cc1CN1C(=O)O[C@H](c2cc(C(F)(F)F)cc(C(F)(F)F)c2)[C@@H]1C [Anacetrapib, reference compound] | 141 ± 45% | 136 ± 28% | 172 ± 34% | 184 ± 45% |
| 983 ± 408 ng/mL | 1015 ± 398 ng/mL | 1706 ± 949 ng/mL | 1709 ± 800 ng/mL |  | 88.4 nM | 51.9 nM | 61.4 nM | CC[C@@H]1C[C@H](N(Cc2cc(C(F)(F)F)cc(C(F)(F)F)c2)c2ncc(-c3cnn(C)c3)cn2)C[C@H](CC)N1C(=O)O[C@H]1CC[C@H](C(=O)O)CC1 [Example 8] | 144 ± 57% | 142 ± 33% | 210 ± 24% | 241 ± 29% |
